Test results as given in PubChem BioAssay (NCI).
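A five-concentration, 48-hour dose response in 96-well plates underlies each endpoint, interpolated linearly between surrounding concentrations. The concentration for 50% growth inhibition is given as GI50. The concentration for full growth arrest is given as TGI.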

Legend:
Experiment in all cases: NCI tumour cell line growth inhibition, 48 h
OVCAR-4 ovarian = system: OVCAR-4 ovarian
ACHN renal = system: ACHN renal
SK-MEL-28 melanoma = system: SK-MEL-28 melanoma
SF-268 CNS = system: SF-268 CNS
MALME-3M melanoma = system: MALME-3M melanoma
NCI-H226 lung = system: NCI-H226 lung
SNB-19 CNS = system: SNB-19 CNS
UO-31 renal = system: UO-31 renal
TK-10 renal = system: TK-10 renal
UACC-257 melanoma = system: UACC-257 melanoma

Row | Structure (SMILES) | GI50 (OVCAR-4 ovarian) [µM] | TGI (OVCAR-4 ovarian) [µM] | GI50 (ACHN renal) [µM] | TGI (ACHN renal) [µM] | GI50 (SK-MEL-28 melanoma) [µM] | TGI (SK-MEL-28 melanoma) [µM] | GI50 (SF-268 CNS) [µM] | TGI (SF-268 CNS) [µM] | GI50 (MALME-3M melanoma) [µM] | TGI (MALME-3M melanoma) [µM] | GI50 (NCI-H226 lung) [µM] | TGI (NCI-H226 lung) [µM] | GI50 (SNB-19 CNS) [µM] | TGI (SNB-19 CNS) [µM] | GI50 (UO-31 renal) [µM] | TGI (UO-31 renal) [µM] | GI50 (TK-10 renal) [µM] | TGI (TK-10 renal) [µM] | GI50 (UACC-257 melanoma) [µM] | TGI (UACC-257 melanoma) [µM]
1 | Nc1ccccc1NC(=O)c1ccc(CNc2nccc(-c3cccnc3)n2)cc1 | 1.43 | > 28.3 | 1.14 | > 27.8 | 0.691 | 3.15 | 0.995 | > 21.4 | 0.57 | > 21.7 | 1.79 | 23.6 | 3.49 | > 100 | 0.978 | > 77.2 | 0.304 | > 27.2 | 0.73 | 
2 | CCOC(=O)c1ccccc1OC(=O)NNc1ccccc1 | 15.2 | > 100 | 0.587 | > 100 | > 59.6 | > 100 | 12.1 | > 100 | 5.44 | > 100 | > 23.7 | > 100 | > 51.6 | > 100 | 0.535 | > 100 | 7.05 | > 100 | 5.61 | > 100
3 | NC1=CC(=O)c2cccnc2C1=O | 1.3 | 2.78 | 1.29 | 2.75 | 1.7 | 3.21 | 1.48 | 3.78 | 1.7 | 3.11 | 7.61 | 27.7 | 1.84 | 3.88 | 1.17 | 2.5 | 15.6 | 29.2 | 1.54 | 2.9
4 | CCCCCCCCOCC(O)COC(C)C (centres undefined) |  | > 100 |  | > 100 |  | > 100 |  | > 100 |  | > 100 |  | > 100 |  | > 100 |  | > 100 |  | > 100 |  | 72.7
5 | CC(C)(C)N1CCC1CN (centres undefined) | > 100 | > 100 | > 100 | > 100 | > 100 | > 100 | > 100 | > 100 | > 100 | > 100 | > 100 | > 100 | > 100 | > 100 | > 100 | > 100 | > 100 | > 100 | > 100 | > 100
6 | COc1ccc(/C=C(/C(=O)N2CCN(c3ccccc3)CC2)c2cc(OC)c(OC)c(OC)c2)cc1N | 3.05 | > 100 | 0.612 | > 100 | 1.47 | > 100 | 0.711 | > 100 | 12.2 | > 100 | 3.2 | > 100 | 0.444 | > 100 | 0.812 | > 100 | 72.1 | > 100 | 3.65 | > 100
7 | Cc1cc([N+](=O)[O-])ccc1NC(=O)C(=O)C(C(=O)c1ccccc1-c1ccccc1)C1OC(=O)c2ccccc21 (centres undefined) |  | 77.9 |  | > 100 |  | > 100 |  | 58.1 |  | 29.9 |  | 28.5 |  | 12.3 |  | 31.3 |  | 33.8 |  | 86.5
8 | N.N.NCCCCCN.O=C([O-])CCl.O=C([O-])CCl.O=C([O-])CCl.O=C([O-])CCl.[Pt+4].[Pt+4] | 10.2 | 48.3 | 3.39 | 29.9 | 23.2 | 73.8 | 2.13 | 36.8 | 11.9 | 39.2 | 0.857 | 3.9 | 1.94 | 17.2 | 4.23 | 17.9 | 26.4 | > 100 | 9.12 | 94.6
9 | CSc1ccc(-c2ccccc(=O)c2O)cc1 | 0.271 | 67.3 | 0.397 | 71.1 | 0.663 | 32.9 | 0.625 | > 100 | 2.41 | > 100 | 1.68 | 37 | 0.57 | > 100 | 0.351 | 5.2 | 0.593 | > 100 | 0.749 | > 100
10 | CSC1=Nc2c(c(C)c(-c3ccccc3)n2CCCN2CCCCC2)C2=NC(=O)C[C@H](C)N12 | 3.21 | 37.7 | 4.78 | 43.8 | 3.32 | 14.9 | 3.96 | 21.9 | 2.63 | 9.61 | 4.5 | > 79.7 | 3.08 | > 94.6 | 6.35 | 26 | 3.98 | > 30.6 | 4.37 | 27.5
11 | COC(=O)C1=Cc2cc(OC)c(OC)c(OC)c2[C@H](c2cc(OC)c(OC)c(OC)c2)C1C(=O)OC (some centres undefined) |  | > 100 |  | > 100 |  | > 100 |  | > 100 |  | > 100 |  | > 100 |  | > 100 |  | > 100 |  | > 100 |  | > 100
12 | NCCCNc1nc2ccccc2c2c(=O)c3cc(F)cc(F)c3sc12 | 1.75 | 3.61 | 1.65 | 3.06 | 1.86 | 3.39 | 1.63 | 3.32 | 1.62 | 3.21 | 10.9 | 29.1 | 1.7 | 3.23 | 1.48 | 2.88 | 1.69 | 3.18 | 1.88 | 4.18
13 | CCOC(=O)[C@@H](C)C[C@H](Cc1ccccc1)NC(=O)c1nc([C@@H](C[C@H](C(C)C)N(C)C(=O)[C@@H](NC(=O)[C@H]2CCCCN2C)C(C)C)OC(C)=O)sc1CCOCc1ccccc1 | 0.222 | > 11.1 | 0.117 | 3.06 | 0.54 | 2.72 | 0.158 | 2.3 | 0.0602 | 2.17 | 0.107 | 1.05 | 0.0926 | 4.34 | 0.586 | 2.24 | 0.631 | 5.28 | 1.51 | 4.19
14 | Cc1ccc(Cl)cc1Nc1nc(C(F)(F)F)ccc1C(=O)N/N=C/c1cccnc1 | 1.33 | 15.4 | 3.63 | 13.1 | 4.24 | 15.8 | 1.55 | 9.32 | 1.27 | 8.27 | 2.38 | 12.4 | 3.37 | 14.4 | 3.51 | 16.2 | 1.32 | 8.89 | 3.15 | 10.1
15 | Cc1cccc(-c2[nH]ncc2-c2ccc3ncccc3n2)n1 | > 22.4 | > 25 | 7.1 | > 25 | 13.3 | > 25 | 10.5 | > 25 | > 25 | > 25 | 9.92 | > 25 | 13.2 | > 25 | 6.17 | > 25 | 13 | > 25 | > 21.3 | > 25
16 | COc1c(C)cc(O)cc1C=O |  | > 100 |  | > 100 |  | > 100 |  | > 100 |  | > 100 |  | > 100 |  | > 100 |  | > 100 |  | > 100 |  | > 100
